Reference: patent publication US20080085881A1, “Stop-and-go oxaliplatin treatment regimens” (priority 2006, published 2008)

How the values were obtained:
Format in all cases: in vivo, patients
[1] = OPTIMOX1 study: neurotoxicity; conditions: stopping oxaliplatin after the sixth cycle
Description: Sensory neurotoxicity can be measured using known techniques and graded using defined criteria. For example, the National Cancer Institute Common Toxicity Criteria (NCI CTC) version 2.0 can be used to grade sensory neuropathy. Using these criteria, an NCI grade of 0 means that there is no change associated with the treatment. NCI grade 1 indicates the loss of deep tendon reflexes or paresthesia (including tingling) not interfering with function. […] NCI Grade 3 indicates sensory loss or paresthesia that interferes with activities of daily living. NCI Grade 4 is reserved for permanent sensory loss that interferes with function.
The OPTIMOX1 study examined the effect of oxaliplatin reintroduction in previously untreated patients with advanced colorectal cancer. The details of this study have been recently published by Tournigand et al., J. Clin. Oncol. (January 2006);24:394, and they are incorporated herein by reference. Two different FOLFOX regimens were used in the study: FOLFOX4 and FOLFOX7. The FOLFOX4 regimen comprises oxaliplatin 85 mg/m^2 given as a 2-hour infusion on day 1, leucovorin 200 mg/m^2 given as a 2-hour infusion on days 1 and 2, and 5-FU given on days 1 and 2 as a bolus of 400 mg/m^2 that is followed directly by a 22-hour infusion of 5-FU 600 mg/m^2 on each day. […]

[2] = tested on: advanced colorectal cancer; test: OPTIMOX1 study: FOLFOX4 until progression (arm A) versus stop-and-go FOLFOX7 (arm B); conditions: OPTIMOX1, previously untreated advanced colorectal cancer
Method: The OPTIMOX1 study examined the effect of oxaliplatin reintroduction in previously untreated patients with advanced colorectal cancer. The details of this study have been recently published by Tournigand et al., J. Clin. Oncol. (January 2006);24:394, and they are incorporated herein by reference. Two different FOLFOX regimens were used in the study: FOLFOX4 and FOLFOX7. The FOLFOX4 regimen comprises oxaliplatin 85 mg/m^2 given as a 2-hour infusion on day 1, leucovorin 200 mg/m^2 given as a 2-hour infusion on days 1 and 2, and 5-FU given on days 1 and 2 as a bolus of 400 mg/m^2 that is followed directly by a 22-hour infusion of 5-FU 600 mg/m^2 on each day. The oxaliplatin infusion on day 1 is given concurrently with leucovorin, and on each day the 5-FU bolus directly follows the 2-hour infusion of leucovorin. FOLFOX7 comprises oxaliplatin 130 mg/m^2 and leucovorin 200 mg/m^2 given concurrently as 2-hour infusions on day 1, followed directly by a 46 hour infusion of 5-FU at 2400 mg/m^2. In some patients, the I-leucovorin isomer was used, but at half the mg/m^2 dosage for dI-leucovorin.
Patients were randomized to either FOLFOX4 every 2 weeks until progression (arm A), or FOLFOX7 for 6 cycles, maintenance with leucovorin-5-FU but without oxaliplatin for 12 […], and reintroduction of FOLFOX7 (arm B). […]

[3] = tested on: advanced colorectal cancer; test: Retrospective analysis of OPTIMOX1: effect of oxaliplatin reintroduction on overall survival (Cox model, centers grouped by reintroduction class)
Method: A retrospective analysis was used to evaluate the effect of oxaliplatin reintroduction on overall survival. The percentage of patients with oxaliplatin reintroduction was calculated in each center regardless of treatment arm, number of patients, or whether reintroduction was per protocol. A Cox model was used to analyze the impact of oxaliplatin reintroduction on survival, after adjustment for all baseline covariates, and using random effects to account for the fact that the percentage of patients with oxaliplatin reintroduction was estimated in each center. Centers were grouped by percentage of oxaliplatin reintroduction into 4 reintroduction classes defined according to the percentage of patients with oxaliplatin reintroduction (0, 1-20, 21-40, and >40). The hazard ratio (HR; adjusted for all baseline covariates) was calculated for each reintroduction class, using centers with no reintroduction (0%) as the reference group.

O=C1[O][Pt]2([NH][C@@H]3CCCC[C@H]3[NH]2)[O]C1=O [oxaliplatin]
risk of grade 3 or 4 neurotoxicity [1]: reduced risk
prognostic value of oxaliplatin reintroduction for overall survival [2]: independent prognostic factor for improved overall survival
Median survival ([3]; >40% reintroduction class): 23 months
impact of percentage of patients with oxaliplatin reintroduction on survival ([3]; after adjustment for all other factors, p<0.001): highly significant impact on survival
impact of reintroduction class on survival ([3]; after adjustment for all other factors, p=0.02): significant impact on survival
Adjusted survival hazard ratio (95% C.I.) ([3]; centers with 0% patients with oxaliplatin reintroduction (reference group)): 1.00 (reference)
Adjusted survival hazard ratio (95% C.I.) ([3]; centers with 1–20% patients with oxaliplatin reintroduction, versus 0% reference): 0.91 (0.56–1.48)
Adjusted survival hazard ratio (95% C.I.) ([3]; centers with 21–40% patients with oxaliplatin reintroduction, versus 0% reference): 0.78 (0.50–1.21)
Adjusted survival hazard ratio (95% C.I.) ([3]; centers with >40% patients with oxaliplatin reintroduction, versus 0% reference): 0.59 (0.38–0.91)
Median survival ([3]; reference group (0% reintroduction)): 15 months
